Source: patent US9133115B2 (ACHILLION PHARMACEUTICALS, INC., priority 2008, dated 2015)

system: HCV replicon; assay: HCV replicon replication assay (NPT ELISA) in Huh-7 replicon-containing cells; format: cell-based; conditions: Hepatitis C virus, 72 h; HCV replicon in Huh-7 cells, three days incubation; read-out: EC50
Method: Compounds claimed herein are tested for the ability to inhibit viral replication of the Hepatitis C replicon in cultured cells in which the HCV replicon construct has been incorporated. The HCV replicon system was described by Bartenschlager, et. al (Science, 285, pp. 110-113 (1999)). The replicon system is predictive of in vivo anti-HCV activity; compounds that are active in humans uniformly evidence activity in the replicon assay.
In this assay HCV replicon containing cells are treated with different concentrations of the test compound to ascertain the ability of the test compound to suppress replication of the HCV replicon. As a positive control, HCV replicon-containing cells are treated with different concentrations of interferon alpha, a known inhibitor of HCV replication. The replicon assay system includes Neomycin Phosphotransferase (NPT) as a component of the replicon itself in order to detect the transcription of replicon gene products in the host cell. Cells in which the HCV replicon is actively replicating have high levels of NPT; the level of NPT is proportional to HCV replication. […] The NPT level of each sample is measured using a captured ELISA.
A protocol for testing compounds for the ability to inhibit viral replication of the Hepatitis C replicon cultured cells in which the replicon construct has been incorporated, follows.
The HCV replicon contains, 5′-3′, the HCV-IRES, the neomycin phosphotransferase (neo) gene, the IRES of encephalomyocarditis virus, which directs translation of HCV sequences NS3 to NS5B, and the 3′-NTR. The sequence of the HCV replicon has been deposited in GenBank (Accession no. AJ242652).
The replicon is transfected into Huh-7 cells using standard methods such as electroporation.
The equipment and materials include, but are not limited to, Huh-7 HCV replicon-containing cells, maintenance media (DMEM (Dulbecco's modified Eagle media) supplemented with 10% FBS, L-glutamine, non-essential amino acids, penicillin (100 units/ml), streptomycin (100 micrograms/ml), and 500 micrograms/ml of Geneticin (G418), screening media (DMEM supplemented with 10% FBS, L-glutamine, non-essential amino acids, penicillin (100 units/ml) and streptomycin (100 micrograms/ml)), 96 well tissue culture plates (flat bottom), 96 well plates (U bottom for drug dilution), Interferon alpha for positive control, fixation reagent (such as methanol: acetone), primary antibody (rabbit anti-NPTII), secondary antibody: Eu-N1 l, and enhancement solution.
HCV replicon-containing cells support high levels of viral RNA replicon replication when their density is suitable. Over-confluency causes decreased viral RNA replication. Therefore, cells must be kept growing in log phase in the presence of 500 micrograms/ml of G418. Generally, cells should be passed twice a week at 1: 4-6 dilution. Cell maintenance is conducted as follows:
HCV replicon-containing cells are examined under a microscope to ensure that cells growing well. Cells are rinsed once with PBS and 2 ml trypsin is added. The cell/trypsin mixture is incubated at 37° C. in a CO2 incubator for 3-5 minutes. After incubation 10 ml of complete media is added to stop the trypsinization reaction. Cells are blown gently, put into a 15 ml tube, and spun at 1200 rpm for 4 minutes. The trypsin/medium solution is removed. Medium (5 ml) is added and the cells are mixed carefully. The cells are counted.
The cells are then seeded onto 96-well plates at a density of 6000-7500 cells/100 microliters/well (6-7.5×10^5 cells/10 ml/plate). The plates are then incubated at 37° C. in a 5% CO2 incubator.
Cells are examined under a microscope approximated 24 hours after seeding and prior to adding drugs. If counting and dilution were performed correctly, cells are 60-70% confluent and nearly all cells should attach and spread evenly in the well.
HCV replicon-containing cells are rinsed with once PBS once; 2 mls of trypsin are then added. Cells are incubated at 37° C. in a 5% CO2 incubator for 3-5 minutes. […]

SMILES	EC50
C=CC1CC1(NC(=O)[C@@H]1C[C@@H](Oc2cc(-c3ccccc3)nc3cc(OC)ccc23)CN1C(=O)C[C@H](C(=O)N1C(=O)OC[C@@H]1Cc1ccccc1)C(C)(C)C)C(=O)NS(=O)(=O)C1CC1 (stereo partly drawn) [Compound 47, (2S,4R)-1-((S)-3-((S)-4-benzyl-2-oxooxazolidine-3-carbonyl)-4,4-dimethyl-pentanoyl)-N-(1-(cyclopropyl-sulfonylcarbamoyl)-2-vinylcyclopropyl)-4-(7-methoxy-2-phenylquinolin-4-yloxy)pyrrolidine-2-carboxamide]	1 to 10 µM
C=C[C@@H]1C[C@]1(NC(=O)[C@@H]1C[C@@H](Oc2cc(-c3ccccc3)nc3cc(OC)ccc23)CN1C(=O)[C@@H](CC(=O)N1CCOCC1)C(C)(C)C)C(=O)NS(=O)(=O)C1CC1 [Compound 48, (2S,4R)-1-((S)-2-tert-butyl-4-morpholino-4-oxobutanoyl)-N-((1R,2S)-1-(cyclo-propylsulfonyl-carbamoyl)-2-vinylcyclopropyl)-4-(7-methoxy-2-phenylquinolin-4-yloxy)pyrrolidine-2-carboxamide]	< 1 µM
C=C[C@@H]1C[C@]1(NC(=O)[C@@H]1C[C@@H](Oc2cc(-c3ccccc3)nc3cc(OC)ccc23)CN1C(=O)[C@@H](CC(=O)NC1CCCC1)C(C)(C)C)C(=O)NS(=O)(=O)C1CC1 [Compound 49, (2S,4R)-1-((S)-2-tert-butyl-4-(cyclopentylamino)-4-oxobutanoyl)-N-((1R,2S)-1-(cyclopropyl-sulfonylcarbamoyl)-2-vinylcyclopropyl)-4-(7-methoxy-2-phenylquinolin-4-yloxy)pyrrolidine-2-carboxamide]	< 1 µM
C=CC1CC1(NC(=O)[C@@H]1C[C@@H](OC(=O)N2Cc3cccc(F)c3C2)CN1C(=O)[C@@H](CC(=O)N1CCCCC1)C(C)(C)C)C(=O)NS(=O)(=O)C1CC1 (stereo partly drawn) [Compound 50, (3R,5S)-1-((S)-2-tert-butyl-4-oxo-4-(piperidin-1-yl)butanoyl)-5-(1-(cyclopropyl-sulfonylcarbamoyl)-2-vinylcyclopropyl-carbamoyl)pyr-rolidin-3-yl 4-fluoroisoindoline-2-carboxylate]	< 1 µM
C=CC1CC1(NC(=O)C1C[C@@H](Oc2cc(-c3ccccc3)nc3cc(OC)ccc23)CN1C(=O)[C@H](CC(=O)N1CCCCC1)CC(C)C)C(=O)NS(=O)(=O)C1CC1 (stereo partly drawn) [Compound 51, (4R)-N-(1-(cyclopropyl-sulfonylcarbamoyl)-2-vinylcyclopropyl)-4-(7-methoxy-2-phenylquinolin-4-yloxy)-1-((S)-4-methyl-2-(2-oxo-2-(piperidin-1-yl)ethyl)pentano-yl)pyrrolidine-2-carboxamide]	1 to 10 µM
C=CC1CC1(NC(=O)C1C[C@@H](Oc2cc(-c3ccccc3)nc3cc(OC)ccc23)CN1C(=O)[C@@H](CC(=O)N1CCCCC1)Cc1ccccc1)C(=O)NS(=O)(=O)C1CC1 (stereo partly drawn) [Compound 52, (4R)-1-((R)-2-benzyl-4-oxo-4-(piperidin-1-yl)butanoyl)-N-(1-(cyclopropyl-sulfonylcarbamoyl)-2-vinylcyclopropyl)-4-(7-methoxy-2-phenylquinolin-4-yloxy)pyrrolidine-2-carboxamide]	< 1 µM
C=CC1CC1(NC(=O)C1C[C@@H](Oc2cc(-c3ccccc3)nc3cc(OC)ccc23)CN1C(=O)[C@@H](CC(=O)N1CCCCC1)C1CCCCC1)C(=O)NS(=O)(=O)C1CC1 (stereo partly drawn) [Compound 53, (4R)-1-((S)-2-cyclohexyl-4-oxo-4-(piperidin-1-yl)butanoyl)-N-(1-(cyclopropyl-sulfonylcarbamoyl)-2-vinylcyclopropyl)-4-(7-methoxy-2-phenylquinolin-4-yloxy)pyrrolidine-2-carboxamide]	< 1 µM
C=CC1CC1(NC(=O)C1C[C@@H](Oc2cc(-c3ccccc3)nc3cc(OC)ccc23)CN1C(=O)[C@@H](CC(=O)N1CCCCC1)CC1CCCCC1)C(=O)NS(=O)(=O)C1CC1 (stereo partly drawn) [Compound 54, (4R)-1-((R)-2-(cyclohexylmethyl)-4-oxo-4-(piperidin-1-yl)butanoyl)-N-(1-(cyclopropyl-sulfonylcarbamoyl)-2-vinylcyclopropyl)-4-(7-methoxy-2-phenylquinolin-4-yloxy)pyrrolidine-2-carboxamide]	< 1 µM
C=C[C@@H]1C[C@]1(NC(=O)[C@@H]1C[C@@H](Oc2cc(-c3ccccc3)nc3cc(OC)ccc23)CN1C(=O)C(CC(=O)N1CCCCC1)C(C)(C)C)C(=O)NS(=O)(=O)C1CC1 (stereo partly drawn) [Compound 55, (2S,4R)-1-(2-tert-butyl-4-oxo-4-(piperidin-1-yl)butanoyl)-N-((1R,2S)-1-(cyclopropyl-sulfonylcarbamoyl)-2-vinylcyclopropyl)-4-(7-methoxy-2-phenylquinolin-4-yloxy)pyrrolidine-2-carboxamide]	< 1 µM
C=C[C@H]1C[C@]1(NC(=O)[C@@H]1C[C@@H](Oc2cc(-c3ccccc3)nc3cc(OC)ccc23)CN1C(=O)C[C@@H](CC1CCCC1)C(=O)N1CCCCC1)C(=O)NS(=O)(=O)C1CC1 [Compound 56, (2S,4R)-1-((R)-3-(cyclopentyl-methyl)-4-oxo-4-(piperidin-1-yl)butanoyl)-N-((1R,2R)-1-(cyclopropyl-sulfonylcarbamoyl)-2-vinylcyclopropyl)-4-(7-methoxy-2-phenylquinolin-4-yloxy)pyrrolidine-2-carboxamide]	1 to 10 µM
C=C[C@H]1C[C@]1(NC(=O)[C@@H]1C[C@@H](Oc2cc(-c3ccccc3)nc3cc(OC)ccc23)CN1C(=O)[C@@H](CC(=O)N1CCCCC1)CC1CCCC1)C(=O)NS(=O)(=O)C1CC1 [Compound 57, (2S,4R)-1-((R)-2-(cyclopentylmethyl)-4-oxo-4-(piperidin-1-yl)butanoyl)-N-((1R,2R)-1-(cyclopropyl-sulfonylcarbamoyl)-2-vinylcyclopropyl)-4-(7-methoxy-2-phenylquinolin-4-yloxy)pyrrolidine-2-carboxamide]	< 1 µM
C=C[C@H]1C[C@]1(NC(=O)[C@@H]1C[C@@H](Oc2cc(-c3ccccc3)nc3cc(OC)ccc23)CN1C(=O)[C@@H](CC(=O)N1CCCCC1)C(C)C)C(=O)NS(=O)(=O)C1CC1 [Compound 58, (2S,4R)-N-((1R,2R)-1-(cyclopropyl-sulfonylcarbamoyl)-2-vinylcyclopropyl)-1-((S)-2-isopropyl-4-oxo-4-(piperidin-1-yl)butanoyl)-4-(7-methoxy-2-phenylquinolin-4-yloxy)pyrrolidine-2-carboxamide]	< 1 µM
C=CC1C[C@]1(NC(=O)[C@@H]1C[C@@H](Oc2cc(-c3ccccc3)nc3cc(OC)ccc23)CN1C(=O)[C@@H](CC(=O)N1CCCCC1)c1ccccc1)C(=O)NS(=O)(=O)C1CC1 (stereo partly drawn) [Compound 59, (2S,4R)-N-((1R,2R)-1-(cyclopropyl-sulfonylcarbamoyl)-2-vinylcyclopropyl)-4-(7-methoxy-2-phenylquinolin-4-yloxy)-1-((S)-4-oxo-2-phenyl-4-(piperidin-1-yl)butanoyl)pyr-rolidine-2-carboxamide]	< 1 µM
C=C[C@H]1C[C@]1(NC(=O)[C@@H]1C[C@@H](Oc2cc(-c3ccccc3)nc3cc(OC)ccc23)CN1C(=O)[C@H](CC(=O)N1CCCCC1)CC1CCCCC1)C(=O)NS(=O)(=O)C1CC1 [Compound 60, (2S,4R)-1-((S)-2-(cyclohexylmethyl)-4-oxo-4-(piperidin-1-yl)butanoyl)-N-((1R,2R)-1-(cyclopropyl-sulfonylcarbamoyl)-2-vinylcyclopropyl)-4-(7-methoxy-2-phenylquinolin-4-yloxy)pyrrolidine-2-carboxamide]	1 to 10 µM
